Laboratory results from PubChem BioAssay (NCI).
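GI50 is the concentration that inhibits growth by half. The concentration for full growth arrest is given as TGI.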

How the values were obtained:
Assay in all cases: DTP human tumour cell line panel, 384-well format
[1] = system: SF-539 CNS
[2] = system: UACC-62 melanoma
[3] = system: A549 NSCLC
[4] = system: NCI/ADR-RES ovarian
[5] = system: SR leukemia
[6] = system: HT29 colon
[7] = system: MCF7 breast
[8] = system: IGROV1 ovarian
[9] = system: SK-MEL-28 melanoma
[10] = system: MOLT-4 leukemia
[11] = system: A498 renal
[12] = system: NCI-H460 NSCLC
[13] = system: MDA-MB-435 melanoma
[14] = system: UACC-257 melanoma
[15] = system: COLO 205 colon
[16] = system: HCT-15 colon
[17] = system: HL-60(TB) leukemia
[18] = system: OVCAR-5 ovarian
[19] = system: DU-145 prostate
[20] = system: EKVX NSCLC
[21] = system: T-47D breast
[22] = system: M14 melanoma
[23] = system: PC-3 prostate
[24] = system: HS 578T breast
[25] = system: SNB-75 CNS
[26] = system: RPMI-8226 leukemia
[27] = system: MALME-3M melanoma
[28] = system: BT-549 breast
[29] = system: HOP-92 NSCLC
[30] = system: NCI-H322M lung
[31] = system: SNB-19 CNS
[32] = system: SF-268 CNS
[33] = system: OVCAR-4 ovarian
[34] = system: OVCAR-8 ovarian
[35] = system: ACHN renal
[36] = system: MDA-MB-231 breast
[37] = system: LOX IMVI melanoma
[38] = system: KM12 colon
[39] = system: NCI-H226 lung
[40] = system: OVCAR-3 ovarian
[41] = system: HCC-2998 colon
[42] = system: SN12C renal
[43] = system: CAKI-1 renal
[44] = system: SK-MEL-5 melanoma
[45] = system: U251 glioblastoma
[46] = system: RXF 393 renal
[47] = system: TK-10 renal
[48] = system: MDA-MB-468 breast
[49] = system: NCI-H23 lung
[50] = system: NCI-H522 lung
[51] = system: HOP-62 NSCLC
[52] = system: SF-295 CNS
[53] = system: SK-OV-3 ovarian
[54] = system: HCT-116 colon
[55] = system: UO-31 renal
[56] = system: 786-0 renal
[57] = system: SW-620 colon
[58] = system: CCRF-CEM leukemia

Structure (SMILES): CC(=O)O/N=C1/C(c2c(O)[nH]c3cc(Br)ccc23)=Nc2ccccc21
- GI50 [1]: 505 nM
- TGI [1]: 1690 nM
- GI50 [2]: 636 nM
- TGI [2]: 1890 nM
- GI50 [3]: 1460 nM
- TGI [3]: 2840 nM
- GI50 [4]: 1240 nM
- TGI [4]: 2520 nM
- GI50 [5]: 1140 nM
- TGI [5]: 2350 nM
- GI50 [6]: 1460 nM
- TGI [6]: 2800 nM
- GI50 [7]: 582 nM
- TGI [7]: 2370 nM
- GI50 [8]: 157 nM
- TGI [8]: 1350 nM
- GI50 [9]: 1670 nM
- TGI [9]: 3070 nM
- GI50 [10]: 1900 nM
- TGI [10]: 3320 nM
- GI50 [11]: 182 nM
- TGI [11]: 496 nM
- GI50 [12]: 798 nM
- TGI [12]: 2070 nM
- GI50 [13]: 1340 nM
- TGI [13]: 2630 nM
- GI50 [14]: 1720 nM
- TGI [14]: 3100 nM
- GI50 [15]: 1270 nM
- TGI [15]: 2530 nM
- GI50 [16]: 686 nM
- TGI [16]: 1950 nM
- GI50 [17]: 495 nM
- TGI [17]: 1150 nM
- GI50 [18]: 1980 nM
- TGI [18]: 3400 nM
- GI50 [19]: 1050 nM
- TGI [19]: 2290 nM
- GI50 [20]: 505 nM
- TGI [20]: 2030 nM
- GI50 [21]: 1760 nM
- TGI [21]: 3230 nM
- GI50 [22]: 1610 nM
- TGI [22]: 2970 nM
- GI50 [23]: 462 nM
- TGI [23]: 1780 nM
- GI50 [24]: 215 nM
- TGI [24]: 860 nM
- GI50 [25]: 554 nM
- TGI [25]: 2040 nM
- GI50 [26]: 685 nM
- TGI [26]: 1860 nM
- GI50 [27]: 1990 nM
- TGI [27]: 4240 nM
- GI50 [28]: 574 nM
- TGI [28]: 1910 nM
- GI50 [29]: 1250 nM
- TGI [29]: 2650 nM
- GI50 [30]: 727 nM
- TGI [30]: 2010 nM
- GI50 [31]: 1470 nM
- TGI [31]: 2870 nM
- GI50 [32]: 1050 nM
- TGI [32]: 2250 nM
- GI50 [33]: 1250 nM
- TGI [33]: 2540 nM
- GI50 [34]: 1100 nM
- TGI [34]: 2310 nM
- GI50 [35]: 472 nM
- TGI [35]: 1660 nM
- GI50 [36]: 1300 nM
- TGI [36]: 2650 nM
- GI50 [37]: 1110 nM
- TGI [37]: 2310 nM
- GI50 [38]: 532 nM
- TGI [38]: 2010 nM
- GI50 [39]: 257 nM
- TGI [39]: 1080 nM
- GI50 [40]: 186 nM
- TGI [40]: 946 nM
- GI50 [41]: 540 nM
- TGI [41]: 1980 nM
- GI50 [42]: 53.8 nM
- TGI [42]: 710 nM
- GI50 [43]: 675 nM
- TGI [43]: 1970 nM
- GI50 [44]: 312 nM
- TGI [44]: 1660 nM
- GI50 [45]: 1080 nM
- TGI [45]: 2280 nM
- GI50 [46]: 1010 nM
- TGI [46]: 2220 nM
- GI50 [47]: 356 nM
- TGI [47]: 1590 nM
- GI50 [48]: 1320 nM
- TGI [48]: 2610 nM
- GI50 [49]: 1470 nM
- TGI [49]: 2860 nM
- GI50 [50]: 1480 nM
- TGI [50]: 2810 nM
- GI50 [51]: 1070 nM
- TGI [51]: 2260 nM
- GI50 [52]: 1000 nM
- TGI [52]: 2320 nM
- GI50 [53]: 275 nM
- TGI [53]: 1330 nM
- GI50 [54]: 1030 nM
- TGI [54]: 2230 nM

Structure (SMILES): Cc1cc(Nc2ncnc3ccc(NC4=NC(C)(C)CO4)cc23)ccc1Oc1ccn2ncnc2c1
- GI50 [1]: 5180 nM
- TGI [1]: 9560 nM
- GI50 [55]: 3270 nM
- TGI [55]: 8280 nM
- GI50 [2]: 5050 nM
- TGI [2]: 10300 nM
- GI50 [3]: 14600 nM
- TGI [3]: > 47300 nM
- GI50 [4]: 14300 nM
- TGI [4]: 27500 nM
- GI50 [5]: 407 nM
- TGI [5]: 814 nM
- GI50 [6]: 29900 nM
- TGI [6]: > 100000 nM
- GI50 [7]: 18300 nM
- TGI [7]: > 48200 nM
- GI50 [8]: 5000 nM
- TGI [8]: > 40400 nM
- GI50 [9]: 8210 nM
- TGI [9]: 49700 nM
- GI50 [10]: 1930 nM
- TGI [10]: 7700 nM
- GI50 [11]: 4690 nM
- TGI [11]: 9110 nM
- GI50 [12]: 4320 nM
- TGI [12]: 9090 nM
- GI50 [13]: 18600 nM
- TGI [13]: > 59600 nM
- GI50 [14]: 20200 nM
- TGI [14]: 44600 nM
- GI50 [15]: > 40900 nM
- TGI [15]: > 55100 nM
- GI50 [16]: 9080 nM
- TGI [16]: 25400 nM
- GI50 [17]: 5590 nM
- TGI [17]: 10300 nM
- GI50 [56]: 4250 nM
- TGI [56]: 8710 nM
- GI50 [18]: > 38800 nM
- TGI [18]: > 58100 nM
- GI50 [19]: 13600 nM
- TGI [19]: 27800 nM
- GI50 [20]: 23000 nM
- TGI [20]: > 46000 nM
- GI50 [21]: 2900 nM
- TGI [21]: 21300 nM
- GI50 [22]: 11400 nM
- TGI [22]: > 57200 nM
- GI50 [23]: 8560 nM
- TGI [23]: > 53800 nM
- GI50 [24]: 3740 nM
- TGI [24]: 8790 nM
- GI50 [25]: 6700 nM
- TGI [25]: 13800 nM
- GI50 [26]: 2540 nM
- TGI [26]: 14900 nM
- GI50 [27]: 2290 nM
- TGI [27]: 7050 nM
- GI50 [28]: 5360 nM
- TGI [28]: 10700 nM
- GI50 [29]: 4480 nM
- TGI [29]: 10300 nM
- GI50 [30]: 5090 nM
- TGI [30]: > 43600 nM
- GI50 [31]: 9260 nM
- TGI [31]: > 61700 nM
- GI50 [32]: 6320 nM
- TGI [32]: > 50200 nM
- GI50 [33]: 10300 nM
- TGI [33]: 22600 nM
- GI50 [34]: 14300 nM
- TGI [34]: > 44300 nM
- GI50 [35]: 12600 nM
- TGI [35]: > 46900 nM
- GI50 [36]: 13600 nM
- TGI [36]: 27700 nM
- GI50 [37]: 14600 nM
- TGI [37]: 28700 nM
- GI50 [38]: 2640 nM
- TGI [38]: > 55000 nM
- GI50 [39]: 12500 nM
- TGI [39]: > 43000 nM
- GI50 [40]: 4710 nM
- TGI [40]: 10000 nM
- GI50 [41]: 24300 nM
- TGI [41]: 98800 nM
- GI50 [42]: 5840 nM
- TGI [42]: 20000 nM
- GI50 [43]: 4230 nM
- TGI [43]: 12600 nM
- GI50 [57]: 6120 nM
- TGI [57]: > 57800 nM
- GI50 [44]: 12300 nM
- TGI [44]: 26600 nM
- GI50 [58]: 22900 nM
- TGI [58]: > 100000 nM
- GI50 [45]: 15900 nM
- TGI [45]: 36100 nM
- GI50 [46]: 7330 nM
- TGI [46]: > 27700 nM
- GI50 [47]: 15200 nM
- TGI [47]: 36000 nM
- GI50 [48]: 6860 nM
- TGI [48]: 19100 nM
- GI50 [49]: 25100 nM
- TGI [49]: > 53100 nM
- GI50 [50]: 1290 nM
- TGI [50]: 23700 nM
- GI50 [51]: 13500 nM
- TGI [51]: 28700 nM
- GI50 [52]: 16300 nM
- TGI [52]: 32900 nM
- GI50 [53]: 13000 nM
- TGI [53]: > 46000 nM
- GI50 [54]: 6820 nM
- TGI [54]: 20300 nM

Structure (SMILES): O=c1[nH]cnc2[nH]ncc12
- GI50 [17]: 74500 nM
- GI50 [26]: 24000 nM
- TGI [26]: 60900 nM
- GI50 [43]: 36800 nM
- GI50 [48]: 85200 nM
- GI50 [49]: 98400 nM
